Laboratory results as given in article PMC8249783, “A novel multikinase inhibitor SKLB‐YTH‐60 ameliorates inflammation and fibrosis in bleomycin‐induced lung fibrosis mouse models” (Cell Proliferation, 2021).

Tests used:
[1] = system: α‐SMA, collagen I and TGF‐β1 mRNA in NIH‐3T3 cells; test: Real‐time qPCR of fibrosis markers in TGF‐β1‐treated fibroblasts; assay type: cell-based, mouse; settings: NIH‐3T3, TGF‐β1 and 2.5 μmol·L^−1 for 24 hours
Description: Total RNA of lung tissues or cells was extracted by using AxyPrep Multisource Total RNA Miniprep Kit (Axygen). Reverse transcription was carried out with Evo M‐MLV RT Kit with gDNA Clean (Accurate, AG11711). qRTPCR was conducted using SYBR Green Pro Taq HS (Accurate, AG11701).

[2] = system: phosphorylation of FGFR1; test: Western blot of FGFR signalling in fibroblasts; assay type: cell-based; settings: 10 μmol·L^−1
Description: Samples of cells and mouse lung tissues were lysed in RIPA buffer with a protease and phosphatase inhibitors (Selleckchem). The protein concentrations in the cell lysate were measured by the Lowry method. Approximately 50 μg of total protein was separated by SDS‐PAGE and then transferred to polyvinylidene fluoride (PVDF) membranes (Amersham Bioscience). After the membranes incubation with the specific primary and secondary antibodies, the reactive bands were detected with enhanced chemiluminescent substrate to horseradish peroxidase.

[3] = system: TNF‐α, IFN‐γ, IL‐2, IL‐4, IL‐10 and IL‐17A; test: Serum cytokines in BLM mice (Th1/Th2/Th17 Cytokine Kit); assay type: in vivo, C57BL/6 mice; settings: day 14
Description: (§1) Male C57BL/6 mice (8‐10 weeks old) were purchased from HFK Bioscience Co. Ltd. All animal experiments were permitted by the Institutional Animal Care and Treatment Committee of Sichuan University in China (New Permit Number: 20190524003). Lung fibrosis was induced using BLM treatment (2 mg·kg^−1). All C57BL/6 mice were divided into five groups (n = 10): a BLM + Nintedanib group (Nintedanib, 30 mg·kg^−1), a BLM + YTH‐60 group (YTH‐60, 15 mg·kg^−1 and 30 mg·kg^−1), a control group (Sham), and a bleomycin group (Vehicle). At the beginning, the mice were anaesthetized using 10% chloral hydrate, dissolved BLM with saline and administered intratracheally. To evaluate the preventive effect, the next day after BLM challenge, YTH‐60 and Nintedanib were administered intraperitoneally daily for 13 days (fibroproliferation) to the mice. All mice were sacrificed 24 hours after the last drug injection, the lungs and other organs were taken for the subsequent analysis. To test the therapeutic effect, after the 7th day of BLM treatment, mice were injected intraperitoneally with YTH‐60, Nintedanib and vehicle daily for 7 consecutive days (fibroproliferation).
IL‐2, IL‐4, IL‐10, IL‐17A, TNF‐α and IFN‐γ levels in mouse serum were determined using a mouse Th1/Th2/Th17 Cytokine Kit (BD Biosciences) according to the manufacturer's instructions. […]

[4] = target: FGFR3 (h) (Homo sapiens, UniProt P22607); test: Kinase profile assay and IC50 test (Eurofins); assay type: biochemical; settings: double testing
Description: (§2) The in vitro kinase enzymatic inhibition assays were carried out by the Kinase Profiling Services provided by Eurofins (UK). The detailed protocol descriptions can be provided by the website (https://www.eurofinsdiscoveryservices.com).

[5] = target: Abl (h) (Homo sapiens, UniProt P00519); test: Kinase profile assay and IC50 test (Eurofins); assay type: biochemical; settings: double testing
Description: as §2

[6] = target: FGFR1 (h) (Homo sapiens, UniProt P11362); test: Kinase profile assay and IC50 test (Eurofins); assay type: biochemical; settings: double testing
FGFR1 (h), sequence (P11362 22-822): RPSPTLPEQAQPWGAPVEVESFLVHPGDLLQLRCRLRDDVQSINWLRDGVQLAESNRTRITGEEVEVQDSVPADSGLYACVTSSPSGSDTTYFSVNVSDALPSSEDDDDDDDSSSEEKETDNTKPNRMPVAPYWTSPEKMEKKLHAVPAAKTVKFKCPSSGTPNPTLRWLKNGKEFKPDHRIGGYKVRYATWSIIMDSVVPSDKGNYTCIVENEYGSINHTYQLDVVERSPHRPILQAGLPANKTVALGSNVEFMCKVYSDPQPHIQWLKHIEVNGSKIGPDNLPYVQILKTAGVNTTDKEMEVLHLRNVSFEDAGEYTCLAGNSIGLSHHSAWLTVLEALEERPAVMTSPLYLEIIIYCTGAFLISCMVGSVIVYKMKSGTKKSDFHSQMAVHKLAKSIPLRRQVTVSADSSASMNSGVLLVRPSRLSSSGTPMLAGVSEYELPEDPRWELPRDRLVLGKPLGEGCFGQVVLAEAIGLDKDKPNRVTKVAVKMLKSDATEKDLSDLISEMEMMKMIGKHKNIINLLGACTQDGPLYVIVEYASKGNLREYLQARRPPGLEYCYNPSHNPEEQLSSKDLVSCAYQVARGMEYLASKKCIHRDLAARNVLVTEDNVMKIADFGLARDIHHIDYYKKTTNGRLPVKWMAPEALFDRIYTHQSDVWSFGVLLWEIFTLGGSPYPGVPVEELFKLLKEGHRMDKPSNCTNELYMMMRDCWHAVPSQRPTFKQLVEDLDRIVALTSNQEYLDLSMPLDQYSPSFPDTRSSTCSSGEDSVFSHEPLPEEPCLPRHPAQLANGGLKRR
Description: as §2

[7] = target: Flt3 (h) (Homo sapiens, UniProt P36888); test: Kinase profile assay and IC50 test (Eurofins); assay type: biochemical; settings: double testing
Flt3 (h), sequence (P36888 27-993): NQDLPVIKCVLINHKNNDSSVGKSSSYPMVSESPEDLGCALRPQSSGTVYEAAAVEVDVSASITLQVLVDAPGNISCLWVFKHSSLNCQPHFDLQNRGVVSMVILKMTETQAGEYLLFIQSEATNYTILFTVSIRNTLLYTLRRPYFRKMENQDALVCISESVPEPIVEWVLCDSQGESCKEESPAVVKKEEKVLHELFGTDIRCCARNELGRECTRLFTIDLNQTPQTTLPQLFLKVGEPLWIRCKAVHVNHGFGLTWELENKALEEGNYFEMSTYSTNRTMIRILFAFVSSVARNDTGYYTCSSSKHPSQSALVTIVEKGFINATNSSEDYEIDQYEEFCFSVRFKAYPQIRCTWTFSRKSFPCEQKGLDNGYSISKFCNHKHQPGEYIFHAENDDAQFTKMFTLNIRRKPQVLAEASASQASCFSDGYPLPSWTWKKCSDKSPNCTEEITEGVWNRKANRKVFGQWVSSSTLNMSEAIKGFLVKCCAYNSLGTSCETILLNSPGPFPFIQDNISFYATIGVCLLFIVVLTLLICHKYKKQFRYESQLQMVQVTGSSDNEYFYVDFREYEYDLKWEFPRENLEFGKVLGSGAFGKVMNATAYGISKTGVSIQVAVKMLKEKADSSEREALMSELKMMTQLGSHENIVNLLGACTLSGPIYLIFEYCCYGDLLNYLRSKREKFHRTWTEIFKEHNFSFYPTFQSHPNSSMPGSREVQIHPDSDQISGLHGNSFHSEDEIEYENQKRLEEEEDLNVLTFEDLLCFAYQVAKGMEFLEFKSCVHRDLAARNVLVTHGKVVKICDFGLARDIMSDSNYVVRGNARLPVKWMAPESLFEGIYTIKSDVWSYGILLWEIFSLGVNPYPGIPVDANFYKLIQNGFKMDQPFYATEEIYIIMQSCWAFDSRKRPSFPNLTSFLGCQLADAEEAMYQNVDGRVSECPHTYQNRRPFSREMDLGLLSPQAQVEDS
Description: as §2

[8] = target: PDGFRα (h) (Homo sapiens, UniProt P16234); test: Kinase profile assay and IC50 test (Eurofins); assay type: biochemical
PDGFRα (h), sequence (P16234 24-1089): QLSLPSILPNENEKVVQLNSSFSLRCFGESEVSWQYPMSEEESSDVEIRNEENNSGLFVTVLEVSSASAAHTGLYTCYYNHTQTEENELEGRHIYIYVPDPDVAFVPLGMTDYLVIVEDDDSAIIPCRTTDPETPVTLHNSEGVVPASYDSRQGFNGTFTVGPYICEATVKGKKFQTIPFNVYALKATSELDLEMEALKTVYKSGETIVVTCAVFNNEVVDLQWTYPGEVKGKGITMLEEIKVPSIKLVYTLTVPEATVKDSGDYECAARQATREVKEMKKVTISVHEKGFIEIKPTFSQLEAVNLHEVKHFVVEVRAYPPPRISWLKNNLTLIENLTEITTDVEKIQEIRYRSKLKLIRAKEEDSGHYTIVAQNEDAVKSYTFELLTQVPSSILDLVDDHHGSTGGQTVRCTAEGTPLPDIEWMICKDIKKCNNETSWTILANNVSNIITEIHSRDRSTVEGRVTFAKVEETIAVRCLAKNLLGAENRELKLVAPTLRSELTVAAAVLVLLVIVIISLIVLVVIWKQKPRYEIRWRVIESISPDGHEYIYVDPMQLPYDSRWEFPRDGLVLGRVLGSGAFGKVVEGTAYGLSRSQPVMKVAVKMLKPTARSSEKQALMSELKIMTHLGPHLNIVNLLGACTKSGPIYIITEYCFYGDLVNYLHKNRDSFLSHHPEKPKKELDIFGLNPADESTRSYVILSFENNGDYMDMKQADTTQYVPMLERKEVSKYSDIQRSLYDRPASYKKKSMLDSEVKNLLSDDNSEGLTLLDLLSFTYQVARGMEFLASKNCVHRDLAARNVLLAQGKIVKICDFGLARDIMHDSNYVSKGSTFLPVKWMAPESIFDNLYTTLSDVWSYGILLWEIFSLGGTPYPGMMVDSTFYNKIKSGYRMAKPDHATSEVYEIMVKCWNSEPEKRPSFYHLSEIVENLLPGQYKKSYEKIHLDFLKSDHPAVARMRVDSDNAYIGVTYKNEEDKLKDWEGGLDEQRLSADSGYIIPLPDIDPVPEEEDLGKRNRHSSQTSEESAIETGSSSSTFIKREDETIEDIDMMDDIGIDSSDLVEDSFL
Description: as §2

[9] = target: KDR (h)/VEGFR2 (Homo sapiens, UniProt P35968); test: Kinase profile assay and IC50 test (Eurofins); assay type: biochemical; settings: double testing
KDR (h)/VEGFR2, sequence (P35968 20-1356): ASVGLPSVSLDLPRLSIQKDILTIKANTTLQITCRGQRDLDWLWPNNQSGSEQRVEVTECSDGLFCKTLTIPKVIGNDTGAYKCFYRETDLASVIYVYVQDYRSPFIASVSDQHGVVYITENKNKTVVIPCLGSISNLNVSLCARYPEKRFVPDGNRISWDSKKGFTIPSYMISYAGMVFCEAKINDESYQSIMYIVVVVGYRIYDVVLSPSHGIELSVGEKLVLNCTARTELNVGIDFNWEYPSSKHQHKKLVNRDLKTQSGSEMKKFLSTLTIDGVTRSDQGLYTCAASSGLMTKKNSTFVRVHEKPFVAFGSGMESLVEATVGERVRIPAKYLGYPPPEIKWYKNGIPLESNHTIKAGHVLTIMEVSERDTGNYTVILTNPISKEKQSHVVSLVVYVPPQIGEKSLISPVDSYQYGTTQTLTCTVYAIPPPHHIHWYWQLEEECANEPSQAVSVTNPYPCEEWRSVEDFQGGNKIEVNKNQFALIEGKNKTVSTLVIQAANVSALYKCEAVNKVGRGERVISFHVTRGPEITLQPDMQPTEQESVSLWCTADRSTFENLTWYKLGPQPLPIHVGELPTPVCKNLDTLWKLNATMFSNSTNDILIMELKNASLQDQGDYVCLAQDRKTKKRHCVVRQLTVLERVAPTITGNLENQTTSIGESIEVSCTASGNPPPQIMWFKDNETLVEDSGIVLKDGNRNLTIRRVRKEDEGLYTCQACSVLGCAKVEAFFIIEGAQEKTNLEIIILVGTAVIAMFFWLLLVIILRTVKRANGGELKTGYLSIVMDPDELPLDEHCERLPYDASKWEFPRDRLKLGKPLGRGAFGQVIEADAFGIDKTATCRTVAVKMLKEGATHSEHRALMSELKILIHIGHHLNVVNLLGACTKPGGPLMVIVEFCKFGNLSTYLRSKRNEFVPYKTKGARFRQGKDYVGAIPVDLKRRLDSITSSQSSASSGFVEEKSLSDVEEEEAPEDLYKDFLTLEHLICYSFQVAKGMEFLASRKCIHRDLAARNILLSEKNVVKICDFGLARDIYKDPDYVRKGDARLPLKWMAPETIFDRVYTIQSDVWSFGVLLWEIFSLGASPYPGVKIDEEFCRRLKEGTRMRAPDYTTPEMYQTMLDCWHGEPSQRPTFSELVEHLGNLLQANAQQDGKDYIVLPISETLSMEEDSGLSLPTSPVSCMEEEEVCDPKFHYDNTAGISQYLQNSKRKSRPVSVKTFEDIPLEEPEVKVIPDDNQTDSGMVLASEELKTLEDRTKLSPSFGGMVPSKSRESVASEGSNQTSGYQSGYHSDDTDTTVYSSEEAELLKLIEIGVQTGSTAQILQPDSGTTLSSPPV
Description: as §2

[10] = target: T1, Src (1‐530) (h) (Homo sapiens, UniProt P12931); test: Kinase profile assay and IC50 test (Eurofins); assay type: biochemical; settings: double testing
T1 construct: Src (1‐530) (h)
T1 sequence (P12931 1-530): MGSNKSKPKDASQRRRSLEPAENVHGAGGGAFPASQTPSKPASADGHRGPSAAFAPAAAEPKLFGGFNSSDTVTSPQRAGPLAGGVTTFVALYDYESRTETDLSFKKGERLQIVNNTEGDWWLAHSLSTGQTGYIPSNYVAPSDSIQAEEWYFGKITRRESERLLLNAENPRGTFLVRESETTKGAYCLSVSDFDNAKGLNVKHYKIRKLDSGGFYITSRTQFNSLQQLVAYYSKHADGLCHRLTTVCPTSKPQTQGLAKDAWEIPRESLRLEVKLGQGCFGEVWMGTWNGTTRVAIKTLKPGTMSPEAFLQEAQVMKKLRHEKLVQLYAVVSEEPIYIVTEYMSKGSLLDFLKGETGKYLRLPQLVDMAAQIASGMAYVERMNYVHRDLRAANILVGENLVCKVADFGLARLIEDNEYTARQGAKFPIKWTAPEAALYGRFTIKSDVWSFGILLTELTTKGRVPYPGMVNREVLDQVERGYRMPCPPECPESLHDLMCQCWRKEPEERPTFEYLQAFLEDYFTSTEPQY
Description: as §2

[11] = target: Flt4 (h)/VEGFR3 (Homo sapiens, UniProt P35916); test: Kinase profile assay and IC50 test (Eurofins); assay type: biochemical; settings: double testing
Description: as §2

[12] = system: BLM‐induced pulmonary fibrosis; test: BLM‐induced pulmonary fibrosis mouse model, preventive treatment; assay type: in vivo, C57BL/6 mice; settings: mice, day 14
Description: as §1, with “To test the therapeutic effect, after the 7th day of BLM treatment, mice were injected intraperitoneally with YTH‐60, Nintedanib and vehicle daily for 7 consecutive days (fibroproliferation).” left out
The left lung was detached and immediately fixed in 4% paraformaldehyde for 72 hours and then embed with paraffin wax. […] Ashcroft scoring was used to examine the severity of pulmonary fibrosis. ^20 The image analysis‐based system to quantify collagen deposition was described previously. ^21 […]

[13] = system: A549 cells; test: Wound healing assay; assay type: cell-based, human; settings: A549, combined with TGF‐β1 vs TGF‐β1 alone
Description: A549 cells (1 × 10^6 well^−1) were grown on 6‐well plates in 2 mL 10% FBS DMEM medium. Making a scratch with a sterile 200 μL microtube tip after 24 hours and the scratched cells were washed gently with serum‐free DMEM. Then, TGF‐β1 or YTH‐60 added to their corresponding wells and cultured for 24 hours. Each picture was imaged at three different locations. ImageJ software was used to estimate the percentage of the original width by measuring the width of the scratches.

[14] = system: BLM‐induced pulmonary fibrosis; test: BLM‐induced pulmonary fibrosis mouse model, therapeutic treatment (day 7 to 14); assay type: in vivo, C57BL/6 mice; settings: mice, 30 mg·kg^−1 i.p. from day 7 to 14
Description: as §1, with “To test the therapeutic effect, after the 7th day of BLM treatment, mice were injected intraperitoneally with YTH‐60, Nintedanib and vehicle daily for 7 consecutive days (fibroproliferation).” left out
The left lung was detached and immediately fixed in 4% paraformaldehyde for 72 hours and then embed with paraffin wax. […] Ashcroft scoring was used to examine the severity of pulmonary fibrosis. ^20 The image analysis‐based system to quantify collagen deposition was described previously. ^21

[15] = system: infiltrating inflammatory cells in BALF; test: Bronchoalveolar lavage fluid cell count in BLM mice; assay type: in vivo, C57BL/6 mice; settings: 30 mg·kg^−1, day 14
Description: as §1
After the animals were anaesthetized, rinsing the lungs with 1 mL of normal saline three times and collected bronchoalveolar lavage fluid. The total living cell count was performed by an ADVIA 2120i.

IC50 [4]: 9 nM
IC50 [5]: 27 nM
IC50 [6]: 4 nM
IC50 [7]: 297 nM
kinase inhibition (in words) [8]: relatively weak kinase inhibition
IC50 ([8]; double testing): 921 nM
IC50 [9]: 61 nM
IC50 [10]: 633 nM
IC50 [11]: 64 nM
Structure (SMILES): COc1cc(OC)c(Cl)c(-c2ccc3c(/C=C/c4ccc(N(C)C(=O)CN5CCN(C)CC5)cc4)n[nH]c3c2)c1Cl [YTH‐60, (E)‐N‐(4‐(2‐(6‐(2,6‐dichloro‐3,5‐dimethoxyphenyl)‐1H‐indazol‐3‐yl)vinyl)phenyl)‐N‐methyl‐2‐(4‐methylpiperazin‐1‐yl)acetamide]
mRNA levels of α‐SMA, collagen I and TGF‐β1 (in words) [1]: reduced this effect
phosphorylation of FGFR1 (in words) [2]: inhibited the phosphorylation of FGFR1
inflammatory cytokines in serum (in words) [3]: reduced the expression level of these inflammatory cytokines
preventive effect on BLM‐induced pulmonary fibrosis (in words) ([12]; 15 mg·kg^−1 i.p.): less effective
preventive effect on BLM‐induced pulmonary fibrosis (in words) ([12]; 30 mg·kg^−1 i.p.): good preventive effect
cell migration (in words) [13]: significantly inhibited cell migration
therapeutic effect on BLM‐induced lung fibrosis (in words) [14]: good therapeutic effect
infiltrating inflammatory cells in BALF (in words) [15]: significantly reduce the number of infiltrating inflammatory cells
